Assay results published in patent publication EP0953357A1, “NEPHROTROPIC DRUGS” (Drug Delivery System Institute, Ltd., priority 1997, dated 1998).
Where two headings read alike, the source gives them in different places.

Columns and labels:
[1] = Renal selectivity (organ distribution) of thioglucoside-modified products (Test 6)
Method: (§1) The organ clearance was determined by the following equation.
Organ distribution was studied on Glc-S-C8 and, in addition, thioglucoside modification products of AVP, tryptamine, NBD as a fluorescent dye, doxorubicin as an anticancer agent and the like. Glc-S-C8 (the labeled product was prepared by catalytic exchange with ^3H gas; the specific activity 40.7 GBq/mmol), AVP derivatives, and tryptamine derivatives were converted to ^3H-labeled product and then studied on organ selectivity in the same manner as in Test 1. For the NBD derivatives, an experiment on distribution was carried out under conditions of dose 10 nmol/kg and 3 min. The vital sample was deproteinized with acetonitrile, subjected to separation by reversed phase liquid chromatography, and then quantitatively determined by fluorescence detection. DXR and derivatives thereof were administered at a dose of 50 nmol/kg, and, 3 min after the administration, the distribution was detected in the same manner as used for the NBD derivatives.

[2] = Distribution of sugar-modified AVP in organs (Test 1); assay type: in vivo, male SD rats; conditions: rats, i.v. 1 nmol/kg; for renal selectivity: 5 min after administration, concentration in organs and organ clearance as index (Figs. 1 and 2)
Method: as §1
The organ clearance under the above experimental conditions is considered as a measure of the speed at which the compound is incorporated into the organs. The kidney is an organ which functions to perform glomerular filtration for the production of urine. The renal clearance of low-molecular weight compounds, which are likely to undergo glomerular filtration, is generally larger than the clearance for other organs. Further, under the above experimental conditions, it was estimated from the results on ^14C-labeled inulin that the incorporation of about 0.6 ml/min/g was carried out by glomerular filtration. Larger values indicate the incorporation of drugs into the kidney through blood vessels in addition to the glomerular filtration.

[3] = Autoradiography of sugar-modified AVPs in the kidney (Test 2); assay type: in vivo; conditions: rats, 5 min after administration, compared with Gal-C8-O-AVP and AVP
Method: Sugar-modified AVPs were administered to rats. Five min after the administration, accumulation sites in the kidney were examined by autoradiography.

[4] = Renal selectivity of modified anti-inflammatory steroid, part 1: total radioactivity in organs (Test 7); conditions: rats, i.v. 10 nmol/kg, 5 min
[5] = Pharmacokinetic test of rats (Glc-S-C5-Ala-DEX) (Test 10 (1)); assay type: in vivo; conditions: male, rat, iv, Group B, i.v. 100 nmol/kg, n = 3, average ± SD
From the text: For both the groups, the dose was 100 nmol/kg.
Plasma was fractionated from the collected blood according to the conventional method. Further, the kidney and the liver were extracted. The plasma was deprotenized, and the organs were homogenized and deprotenized, followed by separation by reversed phase liquid chromatography. Thereafter, Glc-S-C5-Ala-DEX and dexamethasone were detected and quantitatively determined by UV detector.

[6] = rat, in vivo
[7] = rats, ^3H-labeled product, same manner as Test 1 (i.v. 1 nmol/kg, 5 min)

Q: With NCCc1c[nH]c2ccccc12 [Tryptamine] as the compound, how does the Conc. in kidney [1, 7] read?
A: 3.5±0.3 % of dose/g

Q: And the Renal clearance [1, 7]?
A: 0.63 ± 0.07 mL/min/g

Q: Which renal selectivity [2] does the source give for N=C(N)NCCC[C@H](NC(=O)[C@@H]1CCCN1C(=O)[C@@H]1CSSC[C@H](NC(=O)CCCCCCCCO[C@@H]2O[C@H](CO)[C@H](O)[C@H](O)[C@H]2O)C(=O)N[C@@H](Cc2ccc(O)cc2)C(=O)N[C@@H](Cc2ccccc2)C(=O)N[C@@H](CCC(N)=O)C(=O)N[C@@H](CC(N)=O)C(=O)N1)C(=O)NCC(N)=O [Gal-O-C8-AVP] here?
A: the renal selectivity was the same as that for AVP

Q: With N=C(N)NCCC[C@H](NC(=O)[C@@H]1CCCN1C(=O)[C@@H]1CSSC[C@H](NC(=O)CCCCCCCCO[C@@H]2O[C@H](CO)[C@@H](O)[C@H](O)[C@H]2O)C(=O)N[C@@H](Cc2ccc(O)cc2)C(=O)N[C@@H](Cc2ccccc2)C(=O)N[C@@H](CCC(N)=O)C(=O)N[C@@H](CC(N)=O)C(=O)N1)C(=O)NCC(N)=O [Glc-O-C8-AVP] as the compound, how does the Renal clearance ([2]; 5 min, Fig. 2) read?
A: 2.43 mL/min/g

Q: What about the renal selectivity [2] of the same compound?
A: high renal selectivity

Q: And the “concentration in cortical part and in the outer layer of the outer band in the medulla” value [3]?
A: clearly higher

Q: And the “concentration in the medulla” value [3]?
A: lower

Q: What does the source list for C[C@@H]1C[C@H]2[C@@H]3CCC4=CC(=O)C=C[C@]4(C)[C@@]3(F)[C@@H](O)C[C@]2(C)[C@@]1(O)C(=O)CO [dexamethasone]?
A: Total conc. of dexamethasone in organ: Adrenal [4]: 24.65±0.95 pmol/g tissue; Total conc. of dexamethasone in organ: Blood [4]: 7.61±0.49 pmol/g tissue; Total conc. of dexamethasone in organ: Fat [4]: 2.74±1.12 pmol/g tissue; Total conc. of dexamethasone in organ: Heart [4]: 14.86±1.05 pmol/g tissue; Total conc. of dexamethasone in organ: Kidney [4]: 22.36±0.80 pmol/g tissue; Total conc. of dexamethasone in organ: Liver [4]: 65.90±12.61 pmol/g tissue; Total conc. of dexamethasone in organ: Lung [4]: 16.49±1.57 pmol/g tissue; Total conc. of dexamethasone in organ: Spleen [4]: 11.04±0.25 pmol/g tissue; concentration at 5 min ([5]; kidney, read-out: Concentration of dexamethasone: Kidney): 203 ± 39.3 nM; concentration at 5 min ([5]; liver, read-out: Concentration of dexamethasone: Liver): 930 ± 119 nM; concentration at 5 min ([5]; plasma, read-out: Concentration of dexamethasone: Plasma): 116 ± 13.6 nM

Q: For COc1cccc2c1C(=O)c1c(O)c3c(c(O)c1C2=O)C[C@@](O)(C(=O)COC(=O)CCCCCCCCS[C@@H]1O[C@H](CO)[C@@H](O)[C@H](O)[C@H]1O)C[C@@H]3O[C@H]1C[C@H](N)[C@H](O)[C@H](C)O1 [Glc-S-C8-COO-DXR, 14-[9-(1-thio-β-D-glucopyranosyl)nonanoyl]doxorubicin], which “formation of free DXR in plasma and kidney” value ([1]; rat, in vivo) is on record?
A: could be confirmed

Q: Which Hepatic clearance [6] does the source give for CC[C@H](C)[C@@H]1NC(=O)[C@H](Cc2ccc(O)cc2)NC(=O)[C@@H](NC(=O)CCCCCCCCO[C@@H]2O[C@H](CO)[C@@H](O)[C@H](O)[C@@H]2O)CSSC[C@@H](C(=O)N2CCC[C@H]2C(=O)N[C@@H](CC(C)C)C(=O)NCC(N)=O)NC(=O)[C@H](CC(N)=O)NC(=O)[C@H](CCC(N)=O)NC1=O [Man-O-C8-Oxy] here?
A: 0.14 ± 0.02 mL/min/g

Q: What about the Renal clearance [6] of the same compound?
A: 3.59 ± 0.17 mL/min/g

Q: Which renal selectivity [2] does the source give for N=C(N)NCCC[C@H](NC(=O)[C@@H]1CCCN1C(=O)[C@@H]1CSSC[C@H](NC(=O)CCCCCCCCO[C@H]2O[C@H](CO)[C@@H](O)[C@H](O)[C@@H]2O)C(=O)N[C@@H](Cc2ccc(O)cc2)C(=O)N[C@@H](Cc2ccccc2)C(=O)N[C@@H](CCC(N)=O)C(=O)N[C@@H](CC(N)=O)C(=O)N1)C(=O)NCC(N)=O [Man(α)-O-C8-AVP] here?
A: the renal selectivity was the same as that for AVP

Q: With N=C(N)NCCC[C@H](NC(=O)[C@@H]1CCCN1C(=O)[C@@H]1CSSC[C@H](NC(=O)CCCCCCCCO[C@@H]2O[C@H](CO)[C@@H](O)[C@H](O)[C@@H]2O)C(=O)N[C@@H](Cc2ccc(O)cc2)C(=O)N[C@@H](Cc2ccccc2)C(=O)N[C@@H](CCC(N)=O)C(=O)N[C@@H](CC(N)=O)C(=O)N1)C(=O)NCC(N)=O [Man-O-C8-AVP] as the compound, how does the renal selectivity [2] read?
A: high renal selectivity

Q: For CC[C@H](C)[C@@H]1NC(=O)[C@H](Cc2ccc(O)cc2)NC(=O)[C@@H](NC(=O)CCCCCCCCO[C@@H]2O[C@H](CO)[C@@H](O)[C@H](O)[C@H]2O)CSSC[C@@H](C(=O)N2CCC[C@H]2C(=O)N[C@@H](CC(C)C)C(=O)NCC(N)=O)NC(=O)[C@H](CC(N)=O)NC(=O)[C@H](CCC(N)=O)NC1=O [Glc-O-C8-Oxy], which Hepatic clearance [6] is on record?
A: 0.08 ± 0.00 mL/min/g

Q: What about the Renal clearance [6] of the same compound?
A: 1.05 ± 0.05 mL/min/g

Q: With COc1cccc2c1C(=O)c1c(O)c3c(c(O)c1C2=O)C[C@@](O)(C(=O)CO)C[C@@H]3O[C@H]1C[C@H](N)[C@H](O)[C@H](C)O1 [DXR, doxorubicin] as the compound, how does the Renal clearance ([1]; rats, DXR and derivatives: dose 50 nmol/kg, 3 min after administration) read?
A: 0.54 ± 0.10 mL/min/g
